# Columns and labels:
# [1] = target: T1, Protein deacetylase HDAC6 (Homo sapiens, UniProt Q9UBN7); assay: Inhibition of full length recombinant human HDAC6 using fluorescent-labeled peptide as substrate by electrophoretic mobility shift assay
# T1 sequence (Q9UBN7 whole entry): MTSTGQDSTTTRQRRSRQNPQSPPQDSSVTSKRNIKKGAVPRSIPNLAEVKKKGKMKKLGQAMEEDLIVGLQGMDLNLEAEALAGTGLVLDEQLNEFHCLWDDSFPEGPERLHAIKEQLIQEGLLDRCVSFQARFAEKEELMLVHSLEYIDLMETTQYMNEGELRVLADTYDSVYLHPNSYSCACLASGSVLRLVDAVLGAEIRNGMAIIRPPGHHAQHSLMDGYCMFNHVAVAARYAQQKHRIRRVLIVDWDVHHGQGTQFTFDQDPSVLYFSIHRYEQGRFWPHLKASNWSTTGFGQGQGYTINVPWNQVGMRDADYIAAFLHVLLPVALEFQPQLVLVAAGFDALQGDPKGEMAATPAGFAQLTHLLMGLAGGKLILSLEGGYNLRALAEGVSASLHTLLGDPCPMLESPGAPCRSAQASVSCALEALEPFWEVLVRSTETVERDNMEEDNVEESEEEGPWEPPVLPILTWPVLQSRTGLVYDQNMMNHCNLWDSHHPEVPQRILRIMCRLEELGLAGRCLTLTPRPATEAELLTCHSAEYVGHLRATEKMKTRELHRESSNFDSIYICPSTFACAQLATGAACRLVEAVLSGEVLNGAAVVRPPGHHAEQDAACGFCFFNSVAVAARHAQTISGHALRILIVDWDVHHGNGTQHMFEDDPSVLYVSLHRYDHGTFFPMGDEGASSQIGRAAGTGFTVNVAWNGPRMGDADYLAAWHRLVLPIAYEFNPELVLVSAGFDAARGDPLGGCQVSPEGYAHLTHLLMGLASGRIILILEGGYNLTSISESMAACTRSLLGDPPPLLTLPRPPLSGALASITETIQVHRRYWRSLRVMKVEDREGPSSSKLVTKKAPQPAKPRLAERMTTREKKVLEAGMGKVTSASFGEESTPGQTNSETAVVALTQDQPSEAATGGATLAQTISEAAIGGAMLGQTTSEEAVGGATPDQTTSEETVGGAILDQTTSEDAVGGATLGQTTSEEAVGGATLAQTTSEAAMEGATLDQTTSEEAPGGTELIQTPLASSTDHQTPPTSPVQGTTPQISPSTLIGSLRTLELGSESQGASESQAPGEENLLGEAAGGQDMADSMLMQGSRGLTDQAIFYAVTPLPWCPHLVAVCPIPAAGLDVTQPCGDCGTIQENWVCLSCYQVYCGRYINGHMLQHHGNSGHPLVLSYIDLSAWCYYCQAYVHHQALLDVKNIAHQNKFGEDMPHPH
# [2] = Intrinsic clearance in mouse liver microsomes; assay type: ADME, microsome; details: read-out: CLH
# [3] = Kinetic solubility of the compound at pH 7.4; assay type: physicochemical; details: buffer, read-out: Kinetic_solubility
# [4] = Permeability of the compound by PAMPA; assay type: ADME; details: read-out: permeability
# [5] = target: Histone deacetylase 1 (Homo sapiens, UniProt Q13547); assay: Inhibition of full length recombinant human HDAC1 using fluorescent-labeled peptide as substrate by electrophoretic mobility shift assay
# Sequence of Histone deacetylase 1 (Q13547 whole entry): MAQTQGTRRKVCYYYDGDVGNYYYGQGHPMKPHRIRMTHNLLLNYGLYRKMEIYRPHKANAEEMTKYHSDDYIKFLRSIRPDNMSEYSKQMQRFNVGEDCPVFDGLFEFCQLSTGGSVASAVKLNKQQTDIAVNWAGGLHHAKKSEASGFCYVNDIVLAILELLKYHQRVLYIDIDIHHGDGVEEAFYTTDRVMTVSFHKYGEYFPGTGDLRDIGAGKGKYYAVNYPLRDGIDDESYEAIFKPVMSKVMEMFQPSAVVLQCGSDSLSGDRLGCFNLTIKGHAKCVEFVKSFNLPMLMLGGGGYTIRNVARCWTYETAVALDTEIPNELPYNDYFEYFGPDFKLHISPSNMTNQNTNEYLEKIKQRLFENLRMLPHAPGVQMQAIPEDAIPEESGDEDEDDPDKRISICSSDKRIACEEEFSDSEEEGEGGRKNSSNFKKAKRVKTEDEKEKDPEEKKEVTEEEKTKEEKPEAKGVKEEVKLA
# [6] = target: Histone deacetylase 2 (Homo sapiens, UniProt Q92769); assay: Inhibition of full length recombinant human HDAC2 using fluorescent-labeled peptide as substrate by electrophoretic mobility shift assay
# Sequence of Histone deacetylase 2 (Q92769 whole entry): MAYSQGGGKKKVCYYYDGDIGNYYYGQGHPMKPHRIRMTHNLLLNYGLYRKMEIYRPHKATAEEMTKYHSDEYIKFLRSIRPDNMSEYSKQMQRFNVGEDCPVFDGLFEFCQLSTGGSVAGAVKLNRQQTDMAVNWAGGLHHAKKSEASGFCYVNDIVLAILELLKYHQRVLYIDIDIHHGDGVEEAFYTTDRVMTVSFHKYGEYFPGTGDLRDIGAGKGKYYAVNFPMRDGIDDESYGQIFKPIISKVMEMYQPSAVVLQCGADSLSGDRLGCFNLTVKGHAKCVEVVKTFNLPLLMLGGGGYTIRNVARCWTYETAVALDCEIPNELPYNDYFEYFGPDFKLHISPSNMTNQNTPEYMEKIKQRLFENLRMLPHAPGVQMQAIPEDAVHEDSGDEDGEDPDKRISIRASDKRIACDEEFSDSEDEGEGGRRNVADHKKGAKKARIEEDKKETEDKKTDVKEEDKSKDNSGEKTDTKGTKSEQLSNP
# [7] = target: Histone deacetylase 3 (Homo sapiens, UniProt O15379); assay: Inhibition of full length recombinant human HDAC3 using fluorescent-labeled peptide as substrate by electrophoretic mobility shift assay
# Sequence of Histone deacetylase 3 (O15379 whole entry): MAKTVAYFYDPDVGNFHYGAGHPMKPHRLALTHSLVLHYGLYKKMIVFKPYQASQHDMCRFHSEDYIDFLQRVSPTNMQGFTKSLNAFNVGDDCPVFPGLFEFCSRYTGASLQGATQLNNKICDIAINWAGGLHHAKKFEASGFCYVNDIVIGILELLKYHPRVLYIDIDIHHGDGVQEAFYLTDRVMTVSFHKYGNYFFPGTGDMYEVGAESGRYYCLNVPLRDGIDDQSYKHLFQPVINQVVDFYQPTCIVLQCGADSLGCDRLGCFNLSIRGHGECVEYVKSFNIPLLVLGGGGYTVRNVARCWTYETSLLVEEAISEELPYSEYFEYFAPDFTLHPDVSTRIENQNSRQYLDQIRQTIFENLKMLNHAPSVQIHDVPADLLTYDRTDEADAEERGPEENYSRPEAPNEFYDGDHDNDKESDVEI
# [8] = target: Histone deacetylase 5 (Homo sapiens, UniProt Q9UQL6); assay: Inhibition of full length recombinant human HDAC5 using fluorescent-labeled peptide as substrate by electrophoretic mobility shift assay
# Sequence of Histone deacetylase 5 (Q9UQL6 whole entry): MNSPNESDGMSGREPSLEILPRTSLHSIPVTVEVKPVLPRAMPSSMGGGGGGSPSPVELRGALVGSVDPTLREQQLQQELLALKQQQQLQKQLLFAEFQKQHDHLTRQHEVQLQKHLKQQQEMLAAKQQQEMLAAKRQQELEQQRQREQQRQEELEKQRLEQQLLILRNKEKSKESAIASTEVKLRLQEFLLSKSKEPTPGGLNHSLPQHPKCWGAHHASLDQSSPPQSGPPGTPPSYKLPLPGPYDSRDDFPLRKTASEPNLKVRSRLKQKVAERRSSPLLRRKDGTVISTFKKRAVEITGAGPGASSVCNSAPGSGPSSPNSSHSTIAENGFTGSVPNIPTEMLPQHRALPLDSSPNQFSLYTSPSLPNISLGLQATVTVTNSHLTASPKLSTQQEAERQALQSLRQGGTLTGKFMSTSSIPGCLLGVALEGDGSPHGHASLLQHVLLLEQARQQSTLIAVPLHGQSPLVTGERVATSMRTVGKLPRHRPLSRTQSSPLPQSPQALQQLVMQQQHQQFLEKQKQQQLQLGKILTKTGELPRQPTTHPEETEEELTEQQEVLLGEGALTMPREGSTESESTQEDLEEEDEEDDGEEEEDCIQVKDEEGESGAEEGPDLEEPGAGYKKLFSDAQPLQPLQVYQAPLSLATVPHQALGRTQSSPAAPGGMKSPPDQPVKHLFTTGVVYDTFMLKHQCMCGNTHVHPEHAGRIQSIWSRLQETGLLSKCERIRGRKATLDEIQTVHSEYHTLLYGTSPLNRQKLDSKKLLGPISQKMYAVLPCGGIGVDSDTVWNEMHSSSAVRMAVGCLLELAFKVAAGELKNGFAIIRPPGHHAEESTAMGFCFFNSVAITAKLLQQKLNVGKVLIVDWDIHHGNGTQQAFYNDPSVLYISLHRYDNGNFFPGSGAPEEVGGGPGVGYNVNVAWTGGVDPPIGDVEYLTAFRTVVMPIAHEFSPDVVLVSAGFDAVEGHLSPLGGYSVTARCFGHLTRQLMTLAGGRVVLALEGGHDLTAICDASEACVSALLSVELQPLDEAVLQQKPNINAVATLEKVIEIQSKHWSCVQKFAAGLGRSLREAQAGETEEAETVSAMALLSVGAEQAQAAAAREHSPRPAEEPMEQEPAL
# [9] = target: T2, Histone deacetylase 7 (Homo sapiens, UniProt Q8WUI4); assay: Inhibition of full length recombinant human HDAC7 using fluorescent-labeled peptide as substrate by electrophoretic mobility shift assay
# T2 sequence (Q8WUI4 whole entry): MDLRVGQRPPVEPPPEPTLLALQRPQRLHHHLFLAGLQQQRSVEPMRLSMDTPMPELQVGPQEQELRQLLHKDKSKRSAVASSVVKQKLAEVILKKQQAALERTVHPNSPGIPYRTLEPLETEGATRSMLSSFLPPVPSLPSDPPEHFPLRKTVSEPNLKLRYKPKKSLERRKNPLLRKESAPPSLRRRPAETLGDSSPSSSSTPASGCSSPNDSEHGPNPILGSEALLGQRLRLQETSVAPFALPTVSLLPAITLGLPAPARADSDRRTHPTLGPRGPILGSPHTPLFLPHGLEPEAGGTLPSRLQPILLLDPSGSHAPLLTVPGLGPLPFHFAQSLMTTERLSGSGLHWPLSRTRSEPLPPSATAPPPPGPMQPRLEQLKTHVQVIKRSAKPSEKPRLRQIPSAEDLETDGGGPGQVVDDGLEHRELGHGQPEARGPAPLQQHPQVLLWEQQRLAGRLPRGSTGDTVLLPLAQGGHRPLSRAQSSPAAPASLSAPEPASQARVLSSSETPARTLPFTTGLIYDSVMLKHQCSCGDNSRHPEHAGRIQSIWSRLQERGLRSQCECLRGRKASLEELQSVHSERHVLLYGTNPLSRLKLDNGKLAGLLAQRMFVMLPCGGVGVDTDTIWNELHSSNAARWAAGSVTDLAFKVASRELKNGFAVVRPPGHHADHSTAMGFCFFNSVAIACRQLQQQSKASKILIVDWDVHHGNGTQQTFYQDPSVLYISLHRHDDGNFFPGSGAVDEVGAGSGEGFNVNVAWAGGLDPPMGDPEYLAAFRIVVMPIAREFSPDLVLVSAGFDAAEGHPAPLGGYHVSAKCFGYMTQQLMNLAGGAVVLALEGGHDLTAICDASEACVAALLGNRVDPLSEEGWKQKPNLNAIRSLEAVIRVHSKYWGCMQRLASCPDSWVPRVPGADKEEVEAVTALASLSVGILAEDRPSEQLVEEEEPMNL
# [10] = target: Histone deacetylase 9 (Homo sapiens, UniProt Q9UKV0); assay: Inhibition of full length recombinant human HDAC9 using fluorescent-labeled peptide as substrate by electrophoretic mobility shift assay
# Sequence of Histone deacetylase 9 (Q9UKV0 whole entry): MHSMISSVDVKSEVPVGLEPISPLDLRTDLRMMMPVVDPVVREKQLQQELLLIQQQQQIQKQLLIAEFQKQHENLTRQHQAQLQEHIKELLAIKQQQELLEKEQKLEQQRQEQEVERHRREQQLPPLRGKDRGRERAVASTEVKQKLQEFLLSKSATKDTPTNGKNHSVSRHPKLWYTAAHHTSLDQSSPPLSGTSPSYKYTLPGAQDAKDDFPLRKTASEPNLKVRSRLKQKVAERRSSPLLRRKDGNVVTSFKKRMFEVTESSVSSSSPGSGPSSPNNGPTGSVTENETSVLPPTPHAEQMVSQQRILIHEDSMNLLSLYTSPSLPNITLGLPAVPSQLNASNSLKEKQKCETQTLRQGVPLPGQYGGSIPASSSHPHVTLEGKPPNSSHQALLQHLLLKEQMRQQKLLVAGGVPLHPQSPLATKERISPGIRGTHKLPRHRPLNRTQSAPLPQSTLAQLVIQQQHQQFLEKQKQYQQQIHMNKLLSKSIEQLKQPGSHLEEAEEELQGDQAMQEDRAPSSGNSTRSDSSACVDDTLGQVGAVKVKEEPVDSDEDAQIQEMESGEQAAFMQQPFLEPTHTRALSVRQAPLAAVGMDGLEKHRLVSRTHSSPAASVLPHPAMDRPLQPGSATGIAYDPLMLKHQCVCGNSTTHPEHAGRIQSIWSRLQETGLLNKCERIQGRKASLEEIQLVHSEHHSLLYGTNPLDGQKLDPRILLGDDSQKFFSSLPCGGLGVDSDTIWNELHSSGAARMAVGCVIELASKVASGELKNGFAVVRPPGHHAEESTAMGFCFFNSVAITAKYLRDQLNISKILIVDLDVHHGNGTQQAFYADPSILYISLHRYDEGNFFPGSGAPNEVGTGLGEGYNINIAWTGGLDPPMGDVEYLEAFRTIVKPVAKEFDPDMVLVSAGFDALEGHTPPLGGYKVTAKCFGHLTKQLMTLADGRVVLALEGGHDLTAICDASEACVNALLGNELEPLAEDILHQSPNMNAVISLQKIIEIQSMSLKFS
# [11] = target: T3, Polyamine deacetylase HDAC10 (Homo sapiens, UniProt Q969S8); assay: Inhibition of full length recombinant human HDAC10 using fluorescent-labeled peptide as substrate by electrophoretic mobility shift assay
# T3 sequence (Q969S8 whole entry): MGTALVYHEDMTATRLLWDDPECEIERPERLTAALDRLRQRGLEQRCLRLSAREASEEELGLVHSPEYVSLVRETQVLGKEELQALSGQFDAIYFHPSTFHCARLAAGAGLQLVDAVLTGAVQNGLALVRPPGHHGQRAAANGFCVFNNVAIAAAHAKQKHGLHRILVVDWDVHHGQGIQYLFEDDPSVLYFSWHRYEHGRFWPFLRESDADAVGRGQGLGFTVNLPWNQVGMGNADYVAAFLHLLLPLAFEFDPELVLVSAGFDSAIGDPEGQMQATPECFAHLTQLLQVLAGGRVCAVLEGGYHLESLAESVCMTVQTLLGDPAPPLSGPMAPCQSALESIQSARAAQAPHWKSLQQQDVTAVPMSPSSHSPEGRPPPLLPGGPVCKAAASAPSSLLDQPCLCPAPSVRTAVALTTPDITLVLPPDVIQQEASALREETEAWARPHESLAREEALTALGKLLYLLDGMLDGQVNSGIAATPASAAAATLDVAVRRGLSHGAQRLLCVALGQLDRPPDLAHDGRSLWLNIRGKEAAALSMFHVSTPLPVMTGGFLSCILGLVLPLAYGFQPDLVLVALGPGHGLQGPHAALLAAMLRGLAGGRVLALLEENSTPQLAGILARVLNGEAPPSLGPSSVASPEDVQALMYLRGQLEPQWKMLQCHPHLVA
# [12] = target: T4, Histone deacetylase 11 (Homo sapiens, UniProt Q96DB2); assay: Inhibition of full length recombinant human HDAC11 expressed in baculoviral expression system using FAM-RHKK as substrate by electrophoretic mobility shift assay
# T4 sequence (Q96DB2 whole entry): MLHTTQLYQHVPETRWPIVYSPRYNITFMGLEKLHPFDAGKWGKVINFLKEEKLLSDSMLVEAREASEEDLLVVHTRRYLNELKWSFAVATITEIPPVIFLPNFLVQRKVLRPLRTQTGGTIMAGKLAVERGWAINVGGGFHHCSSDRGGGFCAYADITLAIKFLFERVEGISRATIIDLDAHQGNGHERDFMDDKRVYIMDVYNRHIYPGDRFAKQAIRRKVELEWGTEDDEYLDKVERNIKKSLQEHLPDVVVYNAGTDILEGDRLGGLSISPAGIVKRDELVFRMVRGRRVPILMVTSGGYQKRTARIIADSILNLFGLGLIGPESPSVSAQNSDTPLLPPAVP
# [13] = target: T4, Histone deacetylase 11; assay: Inhibition of NanoLuc-tagged HDAC11 (unknown origin) by BRET assay
structure (smiles),measurement,setting,value
CC1(C)c2cccc(C(=O)NO)c2CN1c1cnc(C(F)(F)F)cn1,IC50,[1],> 10000 nM
same,microsomal CLint,[2],22 µL/min/mg
same,solubility kinetic,[3],31 µM
same,Papp,[4],13 ×10⁻⁶ cm/s
same,IC50,[5],> 10000 nM
same,IC50,[6],> 10000 nM
same,IC50,[7],> 10000 nM
same,IC50,[8],> 10000 nM
same,IC50,[9],> 10000 nM
same,IC50,[10],> 10000 nM
same,IC50,[11],> 10000 nM
CC1(C)c2cccc(C(=O)NO)c2CN1c1nc2cc(C(F)(F)F)ccc2o1,IC50,[12],1 nM
same,microsomal CLint,[2],10 µL/min/mg
same,solubility kinetic,[3],4 µM
same,Papp,[4],7 ×10⁻⁶ cm/s
O=C(NO)c1cccc2c1CN(c1nc3ccccc3o1)C2,IC50,[12],7 nM
same,microsomal CLint,[2],313 µL/min/mg
O=C(NO)c1cccc2c1CN(c1nc3ccc(C(F)(F)F)cc3[nH]1)C2,IC50,[12],2 nM
same,microsomal CLint,[2],140 µL/min/mg
O=C(NO)c1cccc2c1CN(c1nc3ccccc3[nH]1)CC2,IC50,[12],4600 nM
same,IC50,[1],82 nM
CC1(C)c2cccc(C(=O)NO)c2CN1c1nc2ncccc2o1,IC50,[12],2 nM
same,microsomal CLint,[2],7 µL/min/mg
same,solubility kinetic,[3],78 µM
same,Papp,[4],0.7 ×10⁻⁶ cm/s
same,IC50,[13],20 nM
O=C(NO)c1cccc2c1CN(c1ccc(C(F)(F)F)cn1)C2,IC50,[12],7 nM
same,microsomal CLint,[2],81 µL/min/mg
O=C(NO)c1cccc2c1CN(C1=NC3CCCCC3N1)C2 (configuration not stated),IC50,[12],300 nM
same,microsomal CLint,[2],317 µL/min/mg
Cc1nc(N2Cc3cccc(C(=O)NO)c3C2)[nH]c1C,IC50,[12],2300 nM
same,microsomal CLint,[2],88 µL/min/mg
CC1(C)c2cccc(C(=O)NO)c2CN1c1cnc(C(F)(F)F)nc1,IC50,[12],27 nM
same,microsomal CLint,[2],7 µL/min/mg
same,solubility kinetic,[3],82 µM
same,IC50,[13],270 nM
O=C(NO)c1cccc2c1CCN(c1nc3ccccc3[nH]1)CC2,IC50,[12],30 nM
same,IC50,[1],2800 nM
same,microsomal CLint,[2],161 µL/min/mg
CC1(C)c2cccc(C(=O)NO)c2CN1c1ccc(C(F)(F)F)cn1,IC50,[12],6 nM
same,microsomal CLint,[2],28 µL/min/mg
same,solubility kinetic,[3],8 µM
same,Papp,[4],12 ×10⁻⁶ cm/s
same,IC50,[13],130 nM
O=C(NO)c1cccc2c1CCN(c1nc3ccccc3[nH]1)C2,IC50,[12],1200 nM
same,IC50,[1],> 10000 nM
same,microsomal CLint,[2],< 7 µL/min/mg
CC1(C)c2cccc(C(=O)NO)c2CN1c1ncc(C(F)(F)F)cn1,IC50,[12],5 nM
same,microsomal CLint,[2],21 µL/min/mg
same,solubility kinetic,[3],32 µM
same,Papp,[4],18 ×10⁻⁶ cm/s
same,IC50,[13],85 nM
O=C(NO)c1cccc2c1CN(c1nc3ccccc3s1)C2,IC50,[12],35 nM
same,microsomal CLint,[2],323 µL/min/mg
CC1(C)c2cccc(C(=O)NO)c2CN1c1ccc(C(F)(F)F)nc1,IC50,[12],3 nM
same,microsomal CLint,[2],12 µL/min/mg
same,solubility kinetic,[3],51 µM
same,Papp,[4],8 ×10⁻⁶ cm/s
same,IC50,[13],12 nM
CC1(C)c2cccc(C(=O)NO)c2CN1c1nc2ccc(C(F)(F)F)cc2[nH]1,IC50,[12],2 nM
same,microsomal CLint,[2],12 µL/min/mg
same,solubility kinetic,[3],51 µM
same,Papp,[4],0.1 ×10⁻⁶ cm/s
O=C(NO)c1ccc2c(c1)CCN(c1nc3ccccc3[nH]1)C2,IC50,[12],> 10000 nM
same,IC50,[1],2 nM
O=C(NO)c1cccc2c1CN(c1ccc3ccccc3n1)C2,IC50,[12],26 nM
same,microsomal CLint,[2],92 µL/min/mg

# Source: ChEMBL document CHEMBL4118189, “Discovery of novel N-hydroxy-2-arylisoindoline-4-carboxamides as potent and selective inhibitors of HDAC11” (Bioorg Med Chem Lett, 2018)
